In ChEMBL document CHEMBL1201862, “PubChem BioAssay data set” (2004):
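Compound exposure: 48 hours, 5 concentrations, 96-well plates. Abbreviation: GI50, concentration required for 50% inhibition of growth.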 The source made the active and inactive calls. No stated cut-off is given here; in the data, active = GI50 up to about 1.1 µM and inactive = higher.

Assays:
Assay in all cases: inhibition of tumour cell growth, NCI panel, 48 h
MDA-MB-435 = test system: MDA-MB-435
CAKI-1 = test system: CAKI-1
NCI-H522 = test system: NCI-H522
SNB-75 = test system: SNB-75
NCI-H460 = test system: NCI-H460
HL-60 = test system: HL-60
KM12 = test system: KM12
SN12C = test system: SN12C
SK-MEL-28 = test system: SK-MEL-28
HCT-15 = test system: HCT-15
786-0 = test system: 786-0
HCT-116 = test system: HCT-116
SK-OV-3 = test system: SK-OV-3
OVCAR-5 = test system: OVCAR-5
M14 = test system: M14
UACC-62 = test system: UACC-62
HCC 2998 = test system: HCC 2998
OVCAR-8 = test system: OVCAR-8
UACC-257 = test system: UACC-257
MDA-N = test system: MDA-N

Row | Structure (SMILES) | GI50 (MDA-MB-435) | GI50 (CAKI-1) | GI50 (NCI-H522) | GI50 (SNB-75) | GI50 (NCI-H460) | GI50 (HL-60) | GI50 (KM12) | GI50 (SN12C) | GI50 (SK-MEL-28) | GI50 (HCT-15) [µM] | GI50 (786-0) | GI50 (HCT-116) | GI50 (SK-OV-3) | GI50 (OVCAR-5) | GI50 (M14) | GI50 (UACC-62) | GI50 (HCC 2998) | GI50 (OVCAR-8) | GI50 (UACC-257) | GI50 (MDA-N)
1 | CCNC(=O)Cc1nc2c(O)ncnc2n1C1OC(CO)C(O)C1O (stereo not given) | > 100 µM (inactive) | > 100 µM (inactive) | > 100 µM (inactive) | > 100 µM (inactive) | > 100 µM (inactive) | > 100 µM (inactive) | > 100 µM (inactive) | > 100 µM (inactive) | > 100 µM (inactive) | > 100 | > 100 µM (inactive) | > 100 µM (inactive) | > 100 µM (inactive) | > 100 µM (inactive) | > 100 µM (inactive) | > 100 µM (inactive) | > 100 µM (inactive) | > 100 µM (inactive) | > 100 µM (inactive) | > 100 µM (inactive)
2 | Cc1ccc2[nH]c3c(c2c1)C1CCC(C(C)(C)C)CC1C1C(=O)N(c2ccc(Oc4ccccc4)cc2)C(=O)C31 (stereo not given) | 58.6 µM (inactive) | 12.7 µM (inactive) | 13.2 µM (inactive) | 2.32 µM (inactive) | 16 µM (inactive) | 2.57 µM (inactive) | > 100 µM (inactive) | 10.4 µM (inactive) | > 58.7 µM (inactive) | 56.8 | 4.72 µM (inactive) | 18.5 µM (inactive) | 17.7 µM (inactive) | 26.3 µM (inactive) | 48.8 µM (inactive) | 47.1 µM (inactive) | 39.3 µM (inactive) | 8.73 µM (inactive) | > 100 µM (inactive) | 50 µM (inactive)
3 | CS(=O)(=O)c1ccc(/N=C/C=C/Nc2ccc(S(C)(=O)=O)cc2)cc1 | > 100 µM (inactive) | > 100 µM (inactive) | > 100 µM (inactive) | > 100 µM (inactive) | > 100 µM (inactive) | > 100 µM (inactive) | 27.4 µM (inactive) | > 100 µM (inactive) | > 100 µM (inactive) | > 100 | > 100 µM (inactive) | > 100 µM (inactive) | > 100 µM (inactive) | > 100 µM (inactive) | > 100 µM (inactive) | > 100 µM (inactive) | > 100 µM (inactive) | > 100 µM (inactive) | > 100 µM (inactive) | > 100 µM (inactive)
